Results reported in US4680310A, “Tetrahydronaphthalene derivatives” (Hoffmann-La Roche Inc., priority 1984, dated 1987).

Assays:
[1] = test system: ^3 H-nifedipine (or ^3 H-nitrendipine) receptor binding on homogenates or partially-cleaned membranes of rabbit or guinea pig heart; experiment: ^3 H-Nifedipine binding determinations (test A); settings: nifedipine established as 100%
Protocol: A. ^3 H-Nifedipine binding determinations:
The determination is carried out on homogenates or on partially-cleaned membranes of rabbit or guinea pig heart. The reaction mixture (0.3 ml) consists of 0.2-0.8 mg of membrane protein, 1 nM of ^3 H-nifedipine (or 0.25 nM of ^3 H-nitrendipine) and various concentrations of the test substances. The incubation lasts 30 minutes at 25° C. or 37° C. and is stopped by dilution with the incubation buffer; a filtration is subsequently carried out. The filter-bound radioactivity is measured with a scintillation counter. Specific binding (i.e. receptor-bound) is defined as the differences between total and unspecific-bound radioactivity. The unspecific binding is determined in the presence of an excess of non-radioactive nifedipine (1 μM).
The activity (potency) of a compound in this test is defined by the IC50 and % maximum inhibition values (% max. inhibition). The IC50 is the substance concentration (in mol/l) which produces a half-maximum inhibition of the specific ^3 H-nifedipine (or ^3 H-nitrendipine) binding. The maximum inhibition of the specific binding is given by the % maximum inhibition value; this value is established as 100% for the reference compound nifedipine. Both parameters are extrapolated from a concentration-binding curve.

[2] = test system: Coronary artery strips of dogs (KCl contracture; tension-dependent calcium channel); experiment: Relaxation of KCl contracture in coronary artery strips of dogs (test B); format: cell-based, dog; settings: Canis lupus familiaris, KCl 84.7 mM, 37° C., read-out: IC50 (half-maximum relaxation of a KCl contracture)
Protocol: B. Coronary artery strips of dogs:
In this experiment spiral strips (2-2.5 mm wide and 10 mm long) of coronary arteries of dogs are cut and hung up in an organ chamber under an initial tension of 1.5 g. These strips are pre-incubated for a duration of about 1 to 2 hours in Krebs-Henseleit buffer solution which is gassed with Oxycarbon (a mixture of 95% oxygen and 5% carbon dioxide) at 37° C. The relaxing activity of one of these substances is subsequently tested on a KCl (84.7 mM) contracture by the addition of increasing concentrations of the test substance to the organ chamber. The calcium channel-blocking activity of the test substances can therefore be established, as the KCl contracture occurs exclusively by means of calcium flow through the tension-dependent calcium channel.
The activity of a test substance in this test is given by the IC50 value. This value is defined as the substance concentration (in mol/l) which produces a half-maximum relaxation of a KCl contracture. This value is also extrapolated from the resulting concentration-activity curve.

narcotized dog = experiment: Haemodynamic parameters in the narcotized dog (test C); format: in vivo; settings: 0.1 mg/kg i.v.
From the text: C. Haemodynamic parameters in the narcotized dog:
The 4 most important measurement parameters (with respective measurement units) of the haemodynamic experiment are: (1) CBF: Coronary Blood Flow (in ml/min)--the velocity of blood flow through the coronary arteries; (2) HR: heart rate (in beats/min)--the heart frequency; (3) BP: blood pressure (in mm Hg)--the blood pressure; and (4) dp/dt: rate of increase in left ventricular pressure (in mm Hg/sec) as a measurement of the contractility force of the heart. The values are given as the % maximum variation from the initial value (Δ%) per dosage administered.
There is thus obtained not only an overall picture of the activity of the substance, but also an estimation as to the potential selectivity for a specific part of the circulatory system in the entire organism. After the administration of an anaesthetic, the dog is intubated and respired artificially. Blood pH, pCO2, pO2 and haemoglobin are measured hourly with a blood-gas analyser. The blood pressure (systolic and diastolic) is measured with a probe in the aorta abdominalis. The heart frequency is recorded by means of a tachometer, which is disengaged from the pressure pulse. For the other measurements the heart must first be opened in order that a probe can be inserted in the left ventricle (heart chamber) for the pressure measurements (dp/dt). The coronary blood flow is measured with a flowing probe in the left coronary artery (descendens).

| Structure (SMILES) | % max inhib. (maximum inhibition of specific binding) [1] [%] | IC50 [2] [nM] | BP (blood pressure), % maximum variation from the initial value (narcotized dog) | CBF (Coronary Blood Flow), % maximum variation from the initial value (narcotized dog) | HR (heart rate), % maximum variation from the initial value (narcotized dog) | dp/dt (rate of increase in left ventricular pressure), % maximum variation from the initial value (narcotized dog) |
| --- | --- | --- | --- | --- | --- | --- |
| COCC(=O)O[C@]1(CCN(C)CCc2ccc(OC)c(OC)c2)CCc2cc(F)ccc2[C@@H]1C(C)C (relative stereo) [A, 2-[2-[(3,4-Dimethoxyphenethyl)methylamino]ethyl]-6-fluoro-1,2,3,4-tetrahydro-1α-isopropyl-2α-naphthyl methoxyacetate] | 77 | 2.8 | -18 Δ % | +93 Δ % | -3 Δ % | -5 Δ % |
| COCC(=O)O[C@@]1(CCN(C)CCc2ccc(OC)c(OC)c2)CCc2cc(F)ccc2[C@H]1C(C)C [C, [1R,2R2-[2[(3,4Dimethoxyphenethyl)methylamino]ethyl6-fluoro-1,2,3,4-tetraydro-1-isopropyl-2-napthyl methoxyacetate] | 73 | 78 | -16 Δ % | +58 Δ % | -5 Δ % | +26 Δ % |
| COCC(=O)O[C@]1(CCN(C)CCc2ccc(OC)c(OC)c2)CCc2cc(F)ccc2[C@@H]1C(C)C [B, [1S,2S]-2-[2-[(3,4-dimethoxyphenethyl)methylamino]ethyl]-6-fluoro-1,2,3,4-tetrahydro-1-isopropyl-2-naphthyl methoxyacetate] | 100 | 6.1 | -23 Δ % | +100 Δ % | -20 Δ % | +13 Δ % |
| COCC(=O)O[C@]1(CCN(C)CCc2ccc(OC)c(OC)c2)CCc2cc(OC)c(OC)cc2[C@@H]1C(C)C (relative stereo) [E, 6,7-dimethoxy-2-[2-[(3,4-dimethoxyphenethyl)methylamino]ethyl]-1,2,3,4-tetrahydro-1α-isopropyl-2α-naphthyl methoxyacetate] | 88 | 20 | -12 Δ % | +65 Δ % | -7 Δ % | +22 Δ % |
| COc1ccc(CCN(C)CC[C@@]2(OC(C)=O)CCc3cc(OC)c(OC)cc3[C@@H]2C(C)C)cc1OC (relative stereo) [D, 6,7-dimethoxy-2-[2-[(3,4-dimethoxyphenethyl)methylamino]ethyl]-1,2,3,4-tetrahydro-1α-isopropyl-2α-naphthyl acetate] | 82 | 87 | -9 Δ % | +58 Δ % | -15 Δ % | +3 Δ % |
